In brackets after ≈: the same amount, converted by molar mass.
What was measured:
[1] = system: isolated polymorphonuclear neutrophils (PMNs); assay: Oxidative burst assay (luminol-enhanced chemiluminescence), isolated PMNs; type: cell-based; conditions: Polymorphonuclear neutrophil, isolated human PMNs, zymosan, three doses 1, 10, 100 μg/mL, mean ± SD of three, read-out: Oxidative Burst Inhibition (IC50) PMNs
From the text: Heparinized blood was obtained by vein puncture aseptically from healthy volunteers. The PMNs were isolated by ficoll-Hypaque density gradient method. The cells were isolated after centrifugation from the tube base. Cells were washed twice and suspended in Hank’s Balance salt solution (HBSS^--) (Ca^2+ and Mg^2+ free), RBCs were lysed using hypotonic solution. Cells were adjusted to their required concentration (1x10^6 cells/mL) using HBSS^++containing Ca^2+ and Mg^2+.
Luminol-enhanced chemiluminescence assay was performed, as described by Helfandet al., 1982 [17], with some modifications. Briefly 25 μL of diluted whole blood in HBSS^++ (Hanks Balanced Salt Solution, containing calcium chloride and magnesium chloride) [Sigma, St. Louis, USA] was incubated with 25 μL of three different concentrations of compounds (1, 10, and 100 μg/mL), each in triplicate. Control wells received HBSS^++ and cells, but no compounds. Test was performed in white half area 96-well plates [Costar, NY, USA], which was incubated at 37 °C for 15 minutes in the thermostat chamber of luminometer [Labsystems, Helsinki, Finland]. After incubation, 25 μL of serum opsonized zymosan (SOZ) [Fluka, Buchs, Switzerland] and 25 μL of intracellular reactive oxygen species detecting probe, luminol [Research Organics, Cleveland, OH, USA] were added into each well, except blank wells (containing only HBSS^++). The level of the ROS was recorded in luminometer in term of relative light units (RLU).

[2] = system: nitric oxide (NO) production from LPS activated J774.2 mouse macrophages; assay: Nitric oxide production (Griess), LPS activated macrophages; type: cell-based; conditions: J774.2 cells, 30 μg/mL LPS, three doses 1, 10, 100 μg/mL, mean ± SD of three, read-out: NO Inhibition (IC50)
Procedure: The mouse macrophage cell line J774.2 (European Collection of Cell Cultures, UK) was cultured in 75 cc flasks IWAKI (Asahi Techno Glass, Japan) in DMEM Sigma-Aldrich (Steinheim, Germany) supplemented with 10% fetal bovine serum GIBCO (New York, USA)1% streptomycin/penicillin. Flasks were kept at 37 °C in atmosphere of humidified air containing 5% CO2, cells were seeded in 96-well plate (10^6 cells/mL) and were induced by 30 μg/mL e. coli lipopolysaccharide (LPS) (DIFCO Laboratories michigon, USA). The test compounds were added at concentrations of (1, 10 and 100 μg/mL) and plate was incubated at 37 °C in 5% CO2. Nitrite accumulation in culture supernatant was measured using the Griess reagents as described previously.

[3] = system: Staphylococcus aureus (ATCC 25923); assay: Microplate Alamar Blue Assay, Staphylococcus aureus; type: cell-based; conditions: Staphylococcus aureus, ATCC25923; 200 μg/mL; NI = No inhibition; read-out: Percentage (%) Inhibition, Staphylococcus aureus
Procedure: (§1) The anti-bacterial activity of synthesized compound were evaluated by the Microplate Alamar Blue Assay. Staphylococcus aureus (ATCC 25923), Pseudomonas aeruginosa(POA 286), Salmonella typhi (ATCC 14028), Bacillus subtilis ATCC 6633) and Escherichia coli (ATCC 12022) were used in this study as a standard bacterial strains and they were obtained from microbial bank of PCMD, International Center for Chemical and Biological Sciences, University of Karachi, Karachi-75270, Pakistan. The bacterial colonies grown in Trypton Soya Agar (TSA) (Oxoid Limited, UK) were inoculated in Mueller Hinton Broth (MHB) (Oxoid Limited, UK) and incubated overnight at 37 °C. Fully grown bacterial cultures were then diluted to adjust with 0.5 McFarland Turbidity Index (equivalent to 1.5 × 10^8 CFU/mL). Stock solutions (4 mg/mL) of different test compounds were prepared in DMSO and 10μL each of these stock solutions were placed in well of flat bottom, polystyrene, sterile 96-wells plate except the positive control wells (media + bacteria). This gives 200μg/mL concentrations of compounds in final 200 μL solution. Each compound was run in triplicates. Finally, bacterial suspension (5 x 10^6 CFU/mL) was added in each well. Plates were sealed by parafilm and incubated at 37 °C for 18–22 hrs. Next day, 20 μL of 0.02% resazurin sodium salt dye (Chem-Impex-Int’LInc) was added in each well and incubated in shaking incubator at 80 rpm, 37 °C for 2–3 hrs. The color change from blue to reddish pink indicates the growth of bacteria. For quantitative analysis, plates were read at 570 nm and 600 nm in Multiskan GOmicroplate spectrophotometer, (Thermo Scientific, USA). The % inhibition of bacterial growth was calculated using below mentioned formula.
(§2) For the calculation of the % difference in reduction between treated and control cells in cytotoxicity/proliferation assays: =(εOX)λ2Aλ1-(εOX)λ1Aλ2oftestagent/(εOX)λ2A°λ1-(εOX)λ1A°λ2ofpositivegrowthcontrol×100

[4] = system: Escherichia coli (ATCC 12022); assay: Microplate Alamar Blue Assay, Escherichia coli; type: cell-based; conditions: ATCC12022, 200 μg/mL, NI = No inhibition, read-out: Percentage (%) Inhibition, Escherichia coli
Procedure: as §1, §2

[5] = system: Pseudomonas aeruginosa (POA 286); assay: Microplate Alamar Blue Assay, Pseudomonas aeruginosa; type: cell-based; conditions: Pseudomonas aeruginosa; 200 μg/mL; NI = No inhibition; read-out: Percentage (%) Inhibition, Pseudomonas aerugenosa
Procedure: as §1, §2

| Structure (SMILES) | IC50 [1] [µg/mL] | IC50 [2] [µg/mL] | inhibition at 200 µg/mL [3] [%] | inhibition at 200 µg/mL [4] [%] | inhibition at 200 µg/mL [5] [%] | melting point [°C] |
| --- | --- | --- | --- | --- | --- | --- |
| Cc1cc(C)nc(NS(=O)(=O)c2ccc(NC(=O)c3cccc([N+](=O)[O-])c3)cc2)n1 [Compound 13, N-(4-(N-(4,6-dimethylpyrimidin-2-yl)sulfamoyl)phenyl)-3-nitrobenzamide] | 4.9 ± 0.2 | 10.9 ± 0.5 (≈ 25.5 µM) | 34.3 | < 0 | 6.58 | 251 to 253 |
| Cc1cc(C)nc(NS(=O)(=O)c2ccc(NC(=O)c3cccc(CCl)c3)cc2)n1 [Compound 4, 3-(Chloromethyl)-N-(4-(N-(4,6-dimethylpyrimidin-2-yl)sulfamoyl)phenyl)benzamide] | 6.1 ± 0.08 | < 1 | 3.21 | < 0 | < 0 | – |
| Cc1cc(C)nc(NS(=O)(=O)c2ccc(NC(=O)c3cc(F)cc(F)c3)cc2)n1 [Compound 7, N-(4-(N-(4,6-dimethylpyrimidin-2-yl)sulfamoyl)phenyl)-3,5-difluorobenzamide] | 2.9 ± 0.3 | 8 ± 0.3 (≈ 19.1 µM) | 54.3 | < 0 | < 0 | 237 to 240 |
| Cc1cc(C)nc(NS(=O)(=O)c2ccc(NC(=O)C(C)Cl)cc2)n1 (stereo not drawn) [Compound 11, 2-Chloro-N-(4-(N-(4,6-dimethylpyrimidin-2-yl)sulfamoyl)phenyl)propanamide] | 6.2 ± 0.13 | 26.3 ± 1.8 (≈ 71.3 µM) | < 0 | 3.93 | 26.5 | 256 to 258 |
| Cc1cc(C)nc(NS(=O)(=O)c2ccc(NC(=O)c3ccc(F)cc3)cc2)n1 [Compound 12, N-(4-(N-(4,6-dimethylpyrimidin-2-yl)sulfamoyl)phenyl)-4-fluorobenzamide] | 3.3 ± 0.05 | 10.8 ± 2.1 (≈ 27 µM) | 49.7 | < 0 | < 0 | – |
| Cc1cc(C)nc(NS(=O)(=O)c2ccc(NC(=O)C(Br)CBr)cc2)n1 (stereo not drawn) [Compound 3, 2,3-Dibromo-N-(4-(N-(4,6-dimethylpyrimidin-2-yl)sulfamoyl)phenyl)propanamide] | 3.6 ± 0.05 | < 1 | 60 | < 0 | 5.93 | – |
| Cc1cc(C)nc(NS(=O)(=O)c2ccc(NC(=O)c3ccc(F)c(C(F)(F)F)c3)cc2)n1 [Compound 10, N-(4-(N-(4,6-dimethylpyrimidin-2-yl)sulfamoyl)phenyl)-4-fluoro-3-(trifluoromethyl)benzamide] | 3.4 ± 0.4 | 7.3 ± 0.2 (≈ 15.6 µM) | 1.09 | < 0 | < 0 | – |
| Cc1cc(C)nc(NS(=O)(=O)c2ccc(NC(=O)c3ccc(CCl)cc3)cc2)n1 [Compound 5, 4-(Chloromethyl)-N-(4-(N-(4,6-dimethylpyrimidin-2-yl)sulfamoyl)phenyl)benzamide] | 3 ± 0.06 | 6.9 ± 1.9 (≈ 16 µM) | 35 | < 0 | < 0 | – |
| Cc1cc(C)nc(NS(=O)(=O)c2ccc(NC(=O)c3ccc(C(F)(F)F)c(F)c3)cc2)n1 [Compound 9, N-(4-(N-(4,6-dimethylpyrimidin-2-yl)sulfamoyl)phenyl)-3-fluoro-4-(trifluoromethyl)benzamide] | 2.8 ± 0.05 | 7.3 ± 0.4 (≈ 15.6 µM) | 27.9 | < 0 | < 0 | – |
| Cc1cc(C)nc(NS(=O)(=O)c2ccc(N)cc2)n1 [compound 1, Sulfamethazine, reference compound] | 5.2 ± 0.05 | 18.9 ± 1.7 (≈ 67.9 µM) | 42.2 | < 0 | 8.92 | – |
| Cc1cc(C)nc(NS(=O)(=O)c2ccc(NC(=O)c3cc(F)cc(C(F)(F)F)c3)cc2)n1 [Compound 8, N-(4-(N-(4,6-dimethylpyrimidin-2-yl)sulfamoyl)phenyl)-3-fluoro-5-(trifluoromethyl)benzamide] | 2.4 ± 0.07 | 7.3 ± 0.3 (≈ 15.6 µM) | 47.3 | < 0 | 4.31 | – |
| Cc1cc(C)nc(NS(=O)(=O)c2ccc(NC(=O)c3cc(C(F)(F)F)cc(C(F)(F)F)c3)cc2)n1 [Compound 6, N-(4-(N-(4,6-dimethylpyrimidin-2-yl)sulfamoyl)phenyl)-3,5-bis(trifluoromethyl)benzamide] | 3.4 ± 0.1 | 7.8 ± 0.3 (≈ 15 µM) | 32.7 | < 0 | < 0 | – |
